# Experimental data from patent US7745446B2, “Pyrazolo[1,5-c]pyrimidines” (Bayer Schering Pharma Aktiengesellschaft, priority 2004, dated 2010).
# Molecular target: T1, GST-ΔPH-Akt1 (Homo sapiens, UniProt P31749)
# T1 construct: named GST-deltaPH-Akt1; 107-480aa; cloned in the pAcGl vector; GST (N); made in house; host or cells: SF9 insect cells (baculovirus vector pAcG1), co-expressed with PDK1
# Experiment: Biochemical ΔPH Akt1 assay (flashplate, 33P incorporation into histone 2B)
# Conditions: 100 nM ATP, histone 2B substrate; read-out: ΔPHAkt1 inhibition: IC50
# Text: For the biochemical assay ΔPHAkt1 is used devoid of its PH domain as a GST fusion protein (named GST-deltaPH-Akt1; 107-480aa; cloned in the pAcGl vector (BD Biosciences Pharmingen)), co-expressed with PDK1 in SF9 insect cells. The protein is purified using glutathion-affinity chromatography by standard protocols.
# In order to study the inhibition of Akt according to the invention, a flashplate-based assay has been developed.
# The Akt1 assay is a biochemical assay using Akt1 devoid of its PH domain and co-expressed with PDK1 in insect cells. The GST-ΔPH-Akt1 assay is run in 96 well plates by incubating 100 ng/well GST-ΔPH-Akt1, 100 ng/well histone 2B (Roche, #223514) as substrate, 10 μl of compound of invention (test compounds were dissolved as 10 mM solutions in dimethylsulfoxide (DMSO) and subsequently diluted) and 100 nM ATP (including ^33P-ATP) in 100 μl of reaction buffer ([…], pH7,5; 3 mM MgCl2; 3 mM MnCl2; 3 μM Na-Orthovanadat; 1 mM DTT; 1 μg/ml PEG8000) for 80 minutes at 30° C. The reactions are terminated by adding 100 μl stopping buffer (2% H3PO4 for 5 minutes) and are washed 3 times by using washing buffer (0.9% NaCl). Relying on the incorporation of ^33P into the protein substrate histone 2B, the detection is based on the adhesion of the phosphorylated protein to the surface of scintillator-coated flash plates (NEN, USA; #SMP-200). This phosphorylation is measured by counting the plate for 60 sec. using a plate reader (Wallac Microbeta; Perkin Elmer, USA).
# T1 sequence (P31749 107-480, stated change not applied): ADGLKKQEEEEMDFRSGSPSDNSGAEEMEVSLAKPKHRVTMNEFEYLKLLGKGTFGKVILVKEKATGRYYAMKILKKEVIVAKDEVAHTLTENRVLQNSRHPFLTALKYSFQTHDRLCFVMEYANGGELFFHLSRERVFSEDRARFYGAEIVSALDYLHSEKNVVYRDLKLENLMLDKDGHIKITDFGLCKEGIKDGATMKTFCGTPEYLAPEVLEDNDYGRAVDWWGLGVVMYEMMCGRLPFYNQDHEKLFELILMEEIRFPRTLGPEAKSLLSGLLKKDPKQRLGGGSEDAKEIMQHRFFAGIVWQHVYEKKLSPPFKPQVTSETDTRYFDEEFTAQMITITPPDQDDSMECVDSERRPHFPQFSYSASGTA
row,IC50 [nM],SMILES
1,≤ 1750,"Nc1ccc(C(=O)Nc2ccc(Nc3nc(-c4cccc5c4oc4ccccc45)cc4ccnn34)cc2)cc1 [Example 6, 4-Amino-N-[4-(5-dibenzofuran-4-yl-pyrazolo[1,5-c]pyrimidin-7-ylamino)-phenyl]-benzamide]"
2,≤ 1750,"NCCCC(=O)Nc1cccc(Nc2nc(-c3cccc4c3oc3ccccc34)cc3ccnn23)c1 [Example 22, 4-Amino-N-[3-(5-dibenzofuran-4-yl-pyrazolo[1,5-c]pyrimidin-7-ylamino)-phenyl]-butyramide]"
3,≤ 1750,"COc1cccc(-c2ccc(-c3cc4c(Br)cnn4c(Nc4ccc(NC(=O)c5ccc(CCN)cc5)cc4)n3)cc2)c1 [Example 86, 4-(2-Amino-ethyl)-N-{4-[3-bromo-5-(3′-methoxy-biphenyl-4-yl)-pyrazolo[1,5-]pyrimidin-7-ylamino]-phenyl}-benzamide]"
4,≤ 1750,"NCc1cccc(C(=O)Nc2ccc(Nc3nc(-c4cccc5c4oc4ccccc45)cc4ccnn34)cc2)c1 [Example 20, 3-Aminomethyl-N-[4-(5-dibenzofuran-4-yl-pyrazolo[1,5-c]pyrimidin-7-ylamino)-phenyl]-benzamide]"
5,≤ 2450,"CC(=O)Nc1cccc(-c2cccc(-c3cc4ccnn4c(Nc4ccc(NC(=O)c5ccc(CN)cc5)cc4)n3)c2)c1 [Example 73, N-{4-[5-(3′-Acetylamino-biphenyl-3-yl)-pyrazolo[1,5-c]pyrimidin-7-ylamino]-phenyl}-4-aminomethyl-benzamide]"
6,≤ 1750,"CC(=O)Nc1cccc(-c2ccc(-c3cc4c(Br)cnn4c(Nc4ccc(NC(=O)c5ccc(CN)cc5)cc4)n3)cc2)c1 [Example 90, N-{4-[5-(3′-Acetylamino-biphenyl-4-yl)-3-bromo-pyrazolo[1,5-c]pyrimidin-7-ylamino]-phenyl}-4-aminomethyl-benzamide]"
7,≤ 1750,"NCCc1ccc(C(=O)Nc2cccc(Nc3nc(-c4cccc5c4oc4ccccc45)cc4ccnn34)c2)cc1 [Example 21, 4-(2-Amino-ethyl)-N-[3-(5-dibenzofuran-4-yl-pyrazolo[1,5-c]pyrimidin-7-ylamino)-phenyl]-benzamide]"
8,≤ 1750,"NCCc1ccc(C(=O)Nc2ccc(Nc3nc(-c4ccc(-c5ccc(F)cc5)cc4)cc4ccnn34)cc2)cc1 [Example 75, 4-(2-Amino-ethyl)-N-{4-[5-(4′-fluoro-biphenyl-4-yl)-pyrazolo[1,5-c]pyrimidin-7-ylamino]-phenyl}-benzamide]"
9,≤ 1750,"O=C(Nc1ccc(Nc2nc(-c3ccc(-c4ccc(F)cc4)cc3)cc3ccnn23)cc1)c1ccc2c(c1)CCNC2 [Example 76, 1,2,3,4-Tetrahydro-isoquinoline-6-carboxylic acid {4-[5-(4′-fluoro-biphenyl-4-yl)-pyrazolo[1,5-c]pyrimidin-7-ylamino]-phenyl}amide]"
10,≤ 1750,"NCc1ccc(C(=O)Nc2ccc(Nc3nc(-c4ccc(-c5ccc(F)cc5)cc4)cc4c(Br)cnn34)cc2)cc1 [Example 89, 4-Aminomethyl-N-{4-[3-bromo-5-(4′-fluoro-biphenyl-4-yl)-pyrazolo[1,5-c]pyrimidin-7-ylamino]-phenyl}-benzamide]"
11,≤ 1750,"NCc1ccc(C(=O)Nc2ccc(Nc3nc(-c4cccc5c4oc4ccccc45)cc4c(Br)cnn34)cc2)cc1 [Example 91, 4-Aminomethyl-N-[4-(3-bromo-5-dibenzofuran-4-yl-pyrazolo[1,5-c]pyrimidin-7-ylamino) -phenyl]-benzamide]"
12,≤ 2450,"NCc1ccc(C(=O)Nc2ccc(Nc3nc(-c4cccc(-c5ccccc5)c4)cc4ccnn34)cc2)cc1 [Example 71, 4-Aminomethyl-N-[4-(5-biphenyl-3-yl-pyrazolo[1,5-c]pyrimidin-7-ylamino)-phenyl]-benzamide]"
13,≤ 2450,"CC(C)(C)c1ccc(C(=O)Nc2ccc(Nc3nc(-c4cccc5c4oc4ccccc45)cc4ccnn34)cc2)cc1 [Example 10, 4-tert-Butyl-N-[4-(5-dibenzofuran-4-yl-pyrazolo[1,5-c]pyrimidin-7-ylamino)-phenyl]-benzamide]"
14,≤ 1750,"CC(=O)Nc1cccc(-c2ccc(-c3cc4ccnn4c(Nc4ccc(NC(=O)c5ccc(CCN)cc5)cc4)n3)cc2)c1 [Example 82, N-{4-[5-(3′-Acetylamino-biphenyl-4-yl)-pyrazolo[1,5-c]pyrimidin-7-ylamino]-phenyl}-4-(2-amino-ethyl)-benzamide]"
15,≤ 1750,"COc1cccc(-c2ccc(-c3cc4ccnn4c(Nc4ccc(NC(=O)c5ccc6c(c5)CCNC6)cc4)n3)cc2)c1 [Example 77, 1,2,3,4-Tetrahydro-isoquinoline-6-carboxylic acid {4-[5-(3′-methoxy-biphenyl-4-yl)-pyrazolo[1,5-c]pyrimidin-7-ylamino]-phenyl}amide]"
16,≤ 1750,"COc1ccc(-c2ccc(-c3cc4c(Br)cnn4c(Nc4ccc(NC(=O)c5ccc(CN)cc5)cc4)n3)cc2)cc1 [Example 88, 4-Aminomethyl-N-{4-[3-bromo-5-(4′-methoxy-biphenyl-4-yl)-pyrazolo[1,5-c]pyrimidin-7-ylamino]-phenyl}-benzamide]"
17,≤ 1750,"COc1ccc(-c2cccc(-c3cc4ccnn4c(Nc4ccc(NC(=O)c5ccc(CN)cc5)cc4)n3)c2)cc1 [Example 72, 4-Aminomethyl-N-{4-[5-(4′-methoxy-biphenyl-3-yl)-pyrazolo[1,5-c]pyrimidin-7-ylamino]-phenyl}-benzamide]"
18,≤ 2450,"O=C(Cc1cccc(Cl)c1)Nc1ccc(Nc2nc(-c3cccc4c3oc3ccccc34)cc3ccnn23)cc1 [Example 12, 2-(3-Chloro-phenyl)-N-[4-(5-dibenzofuran-4-yl-pyrazolo[1,5-c]pyrimidin-7-ylamino) -phenyl]-acetamide]"
19,≤ 1750,"NCc1ccc(C(=O)Nc2ccc(Nc3nc(-c4ccc5cc(O)ccc5c4)cc4ccnn34)cc2)cc1 [Example 44, 4-Aminomethyl-N-{4-[5-(6-hydroxy-naphthalen-2-yl)-pyrazolo[1,5-c]pyrimidin-7-ylamino]-phenyl}-benzamide]"
20,≤ 1750,"NCCc1ccc(C(=O)Nc2ccc(Nc3nc(-c4ccc(Br)cc4)cc4ccnn34)cc2)cc1 [Example 84, 4-(2-Amino-ethyl)-N-{4-[5-(4-bromo-phenyl)-pyrazolo[1,5-c]pyrimidin-7-ylamino]-phenyl}-benzamide]"
21,≤ 2450,"COc1cccc(-c2cccc(-c3cc4ccnn4c(Nc4ccc(NC(=O)c5ccc(CN)cc5)cc4)n3)c2)c1 [Example 74, 4-Aminomethyl-N-{4-[5-(3′-methoxy-biphenyl-3-yl)-pyrazolo[1,5-c]pyrimidin-7-ylamino]-phenyl}-benzamide]"

# Test system: MDA-MB-468 cells
# Experiment: Cellular proliferation/cytotoxicity assay (Alamar Blue), MDA-MB-468
# Conditions: Homo sapiens, MDA-MB-468, 48 h, read-out: Anti-proliferative/cytotoxic activity: IC50 MDA468
# Method: (§1) The anti-proliferative activity of the compounds as described herein, is evaluated using MCF7 and MDA-MB-468 (ATCC HTB-22 and HTB-132) cell lines and the Alamar Blue (Resazurin) cell viability assay (O'Brien et al. Eur J Biochem 267, 5421-5426, 2000). Resazurin is reduced to the fluorescent resorufin by cellular dehydrogenase activity, correlating with viable, proliferating cells. Test compounds are dissolved as 10 mM solutions in DMSO and subsequently diluted. MCF7 or MDA-MB-434 cells were seeded into 96 well flat bottom plates at a density of 10000 cells/well (MCF7) or 5000 cells/well (MDA-MB-468) in a volume of 200 μl/well. 24 hours after seeding, 1 μl each of the compound dilutions are added into each well of the 96 well plates. Each compound dilution is tested as at least as duplicates. Wells containing untreated control cells were filled with 200 μl DMEM containing 0.5% v:v DMSO. The cells are then incubated with the substances for 48 hours at 37° C. in a humidified atmosphere containing 5% carbon dioxide. To determine cell viability, 20 μl of a Resazurin solution (Sigma; 90 mg/l) are added. After 4 hours incubation at 37° C. the fluorescence is measured at an extinction of 544 nm and an emission of 590 nm (Wallac Victor2; Perkin Elmer, USA). For the calculation of the cell viability the emission value from untreated cells is set as 100% viability and the emission rates of treated cells are set in relation to the values of untreated cells. Viabilities are expressed as % values. The corresponding IC50 values of the compounds for cytotoxic activity are determined from the concentration-effect curves by means of non-linear regression. The analysis of the data is performed using a biostatistical program (GraphPad Prism, USA).
row,SMILES,IC50 [nM]
1,"NCc1cccc(C(=O)Nc2ccc(Nc3nc(-c4cccc5c4oc4ccccc45)cc4ccnn34)cc2)c1 [Example 20, 3-Aminomethyl-N-[4-(5-dibenzofuran-4-yl-pyrazolo[1,5-c]pyrimidin-7-ylamino)-phenyl]-benzamide]",≤ 13600
2,"CN1CCN(Cc2ccc(C(=O)Nc3ccc(Nc4nc(-c5cccc(Br)c5)cc5ccnn45)cc3)cc2)CC1 [Example 2, N-{4-[5-(3-Bromo-phenyl)-pyrazolo[1,5-c]pyrimidin-7-ylamino]-phenyl}-4-(4-methyl-piperazin-1-ylmethyl)-benzamide]",≤ 13600
3,"CC(=O)Nc1cccc(-c2ccc(-c3cc4ccnn4c(Nc4ccc(NC(=O)c5ccc6c(c5)CCNC6)cc4)n3)cc2)c1 [Example 83, 1,2,3,4-Tetrahydro-isoquinoline-6-carboxylic acid {4-[5-(3′-acetylamino-biphenyl-4-yl)-pyrazolo[1,5-c]pyrimidin-7-ylamino]-phenyl}-amide]",≤ 13600

# Test system: MCF7 cells
# Experiment: Cellular proliferation/cytotoxicity assay (Alamar Blue), MCF7
# Conditions: Homo sapiens, MCF7, 48 h, read-out: Anti-proliferative/cytotoxic activity: IC50 MCF7
# Method: as §1
row,SMILES,IC50 [nM]
1,"NCc1cccc(C(=O)Nc2ccc(Nc3nc(-c4cccc5c4oc4ccccc45)cc4ccnn34)cc2)c1 [Example 20, 3-Aminomethyl-N-[4-(5-dibenzofuran-4-yl-pyrazolo[1,5-c]pyrimidin-7-ylamino)-phenyl]-benzamide]",≤ 16900
2,"CN1CCN(Cc2ccc(C(=O)Nc3ccc(Nc4nc(-c5cccc(Br)c5)cc5ccnn45)cc3)cc2)CC1 [Example 2, N-{4-[5-(3-Bromo-phenyl)-pyrazolo[1,5-c]pyrimidin-7-ylamino]-phenyl}-4-(4-methyl-piperazin-1-ylmethyl)-benzamide]",≤ 16900
3,"CC(=O)Nc1cccc(-c2ccc(-c3cc4ccnn4c(Nc4ccc(NC(=O)c5ccc6c(c5)CCNC6)cc4)n3)cc2)c1 [Example 83, 1,2,3,4-Tetrahydro-isoquinoline-6-carboxylic acid {4-[5-(3′-acetylamino-biphenyl-4-yl)-pyrazolo[1,5-c]pyrimidin-7-ylamino]-phenyl}-amide]",≤ 16900
